# Counter-ions that a name gives are not always drawn. Like-named read-outs stand apart in the source and are kept apart here.
# Key:
# [1] = pigs, cited from earlier work; for F (bioavailability): conventional oral administration
# [2] = cited from earlier work
# [3] = Florphenicol pharmacokinetics, FOLA vs commercially available, 20 mg/kg, 3 days; type: in vivo, commercial poultry; conditions: along three days, 20 mg/kg in food, when included in FOLA system
# Experimental: Note generation of concentrations higher than traditional system (Cmax, MRT and AUC), which makes suitable its PK/PD ratio when included in FOLA system.
# Note a generation of concentrations lower than 3 μg/mL, making suitable its PK/PD ratio when included in FOLA system.
# Tests in Commercial Poultry
# Variables disclosed below are pharmacokinetically obtained for florphenicol in FOLA and a commercially available reference preparation administered during 3 days: […]
# [4] = Background bioavailability and elimination of drugs in pigs; conditions: associated to FOLA system, single dose in the morning with food
# Source text: Serum concentrations are not reached by night and in breeding sows doses should be 3000 ppm as they only eat an average of 2 kg with a weight of 300 kg. This is obviously not performed as they would reject food. • Tylosin and tiamulin are often underdosed due to costs. […] FOLA system achieves that easily even better than if that would have been injected. • Provision of phosphomycin in food is not useful since its F is below 20% and is eliminated in a few hours. Associated to FOLA system the results allow a single dose in the morning with food reaching F close to 100% and during 24 hours.
# [5] = Tylosin tartrate pharmacokinetics, FOLA vs commercially available, 200 ppm in food; type: in vivo, commercial poultry; conditions: when included in FOLA system, food ad libitum, poultry of 1.9 kg
# Source text: Note generation of concentrations quite higher than traditional system (Cmax, MRT and AUC), which makes suitable its PK/PD ratio when included in FOLA system.
# For Tylosin in commercial poultry, very high concentrations are achieved when FOLA system is used and which remain with therapeutic effect along night as shown in charts of FIGS. 4a and 4b. Variables disclosed below are pharmacokinetically obtained for tylosin in FOLA and a commercially available reference preparation: […]
# [6] = humans; cited from earlier work
# [7] = commercial poultry, conventional oral administration
smiles,measurement,setting,value
CN[C@@H]1[C@H](O)[C@H](NC)[C@H]2O[C@@]3(O)C(=O)C[C@@H](C)O[C@H]3O[C@@H]2[C@H]1O [Spectinomycin],F (bioavailability),[1],7%
CN(C)[C@@H]1C(O)=C(C(N)=O)C(=O)[C@@]2(O)C(O)=C3C(=O)c4c(O)cccc4[C@@](C)(O)[C@H]3[C@H](O)[C@@H]12 [Oxytetracycline],F (bioavailability),[2]; [7],20%
same,F (bioavailability),"[2]; commercial poultry, conventional oral administration, listed as oxytetracycline base",around 20%
CS(=O)(=O)c1ccc([C@@H](O)[C@@H](CF)NC(=O)C(Cl)Cl)cc1 [Florphenicol],serum concentrations (FIG. 8b),[3],lower than 3 μg/mL
C[C@@H]1O[C@@H]1P(=O)(O)O [Phosphomycin],F (bioavailability),[4],~100%
same,F (bioavailability),[1],below 20%
same,time to removal from plasma and tissues,"[2]; in water, usual doses 10-40 mg/kg/day",6 to 8 h
CC[C@H]1OC(=O)C[C@@H](O)[C@H](C)[C@@H](O[C@@H]2O[C@H](C)[C@@H](O[C@H]3C[C@@](C)(O)[C@@H](O)[C@H](C)O3)[C@H](N(C)C)[C@H]2O)[C@@H](CC=O)C[C@@H](C)C(=O)/C=C/C(C)=C/[C@@H]1CO[C@@H]1O[C@H](C)[C@@H](O)[C@@H](OC)[C@H]1OC [Tylosin],F (bioavailability),[2]; [7],< 40%
CC[C@H]1OC(=O)C[C@@H](O)[C@H](C)[C@@H](O[C@@H]2O[C@H](C)[C@@H](O[C@H]3C[C@@](C)(O)[C@@H](O)[C@H](C)O3)[C@H](N(C)C)[C@H]2O)[C@@H](CC=O)C[C@@H](C)C(=O)/C=C/C(C)=C/[C@@H]1CO[C@@H]1O[C@H](C)[C@@H](O)[C@@H](OC)[C@H]1OC [tylosin tartrate],concentrations reached (FIG. 4b),[5],exceeding 1.5 μg/mL
CC[C@H]1OC(=O)[C@H](C)[C@@H](O[C@H]2C[C@@](C)(OC)[C@@H](O)[C@H](C)O2)[C@H](C)[C@@H](O[C@@H]2O[C@H](C)C[C@H](N(C)C)[C@H]2O)[C@](C)(O)C[C@@H](C)C(=O)[C@H](C)[C@@H](O)[C@]1(C)O [Erithromycin],F (bioavailability),"[2]; in vivo, po",18%
CN(C)[C@@H]1C(O)=C(C(N)=O)C(=O)[C@@]2(O)C(O)=C3C(=O)c4c(O)ccc(Cl)c4[C@@](C)(O)[C@H]3C[C@@H]12 [chlortetracycline],F (bioavailability),[2]; [7],20%
"COc1cc(Cc2cnc(N)nc2N)cc(OC)c1OC [TMP, trimethoprim]",elimination half-life,[1],1 h
same,T½β,[2]; birds,1 h
same,T½β,[6],10 h
CCC[C@@H]1C[C@@H](C(=O)N[C@@H]([C@H]2O[C@H](SC)[C@H](O)[C@@H](O)[C@H]2O)[C@@H](C)O)N(C)C1 [Lincomycin],life,[1],≥ 20%

# From patent US20160279063A1, “COMPOSITION OF EXCIPIENTS AND PHARMACEUTICAL FORMS WITH SUSTAINED RELEASE AND INCREASED BIOAVAILABILITY OF ANTIBACTERIAL DRUGS, ANTICOCCIDIAL DRUGS AND OTHER DRUGS FOR COMMERCIAL POULTRY AND PIGS” (priority 2012, published 2016)
